Measurements published in patent publication US11547686B2 (priority 2017, dated 2023).
Values after ≈ are worked out from the molar mass of the structure shown. Read-outs that look alike come from different tables or passages of the source. Marks after values point to notes of the source that are not given here.

Key:
[1] = Solubility of pregabalin and acetaminophen in water at different pH values (HPLC-UV); settings: for solubility: thermodynamic from solid
Procedure: The pH was then adjusted to the required range. The concentration of the active ingredients was determined by HPLC-UV.

in vivo = settings: for AUC(0-inf) / Cmax: rat, in vivo, iv
Procedure: The active ingredients were dissolved in 0.9% saline (20 mL) to achieve the desired concentration. The saline and vial constituents were mixed with by gentle swirling until a clear solution was obtained. The obtained clear solution was filtered through a sterile 0.45 μm PVDF membrane syringe filter and then used for further studies.
(§1) Blood samples were collected over a 24 h period, at which time the rats were exsanguinated, and the blood was collected for clinical pathology evaluation (chemistry, hematology, and coagulation). Finally, all the animals were necropsied (all exterior and interior cavities and organs were examined), and the site of infusion in the jugular vein, lung, liver, and kidney underwent histopathologic evaluation.

[2] = tested on: red blood cells (rat whole unclotted blood); assay: In vitro hemolysis test, rat blood; settings: 15 min at 37° C.
[3] = tested on: red blood cells (dog whole unclotted blood); assay: In vitro hemolysis test, dog blood; settings: 15 min at 37° C.
[4] = tested on: red blood cells (mouse whole unclotted blood); assay: In vitro hemolysis test, mouse blood; settings: 15 min at 37° C.
[5] = tested on: red blood cells (human whole unclotted blood); assay: In vitro hemolysis test, human blood; settings: 15 min at 37° C.
[6] = rats, 15 min IV infusion
Procedure: as §1

[7] = Necropsy and histopathologic evaluation after intravenous infusion in rats; settings: n = 6 per group
Procedure: as §1

[8] = tested on: somatic pain in a rat model; assay: Hot plate test (somatic pain); assay type: in vivo, Sprague-Dawley rats; settings: rats; morphine 3 mg/kg s.c.; combination 50 mg/kg APAP; 40 mg/kg pregabalin IV infusion
Procedure: Hot Plate Test: The hot plate test is a test that can be used to assess pain sensitivity in rodents. […] In the test, an animal is placed in a confined cylindrical space to restrict locomotion. The floor surface of the space is maintained at a temperature sufficiently hot to elicit an aversive response, but not so hot that tissue damage is induced, typically 50-56° C. The animal is monitored, and latency to paw licking or jumping is recorded. This test can be used to screen novel drugs or drug combinations for effects on pain detection threshold; substances with an analgesic effect can increase latency to licking/jumping, while substances with a hyperalgesic effect can decrease latency.
The effect on somatic pain was tested in groups of 8 Male Sprague-Dawley rats.
Vehicle and test agents were administered by intravenous infusion (IV-CI) over 15 minutes starting 30 minutes before Time 0 (15 minutes post infusion). Morphine was used as a positive control, and was administered (3 mg/kg) by subcutaneous administration 60 minutes before Time 0. […] The pain threshold of the rats was assessed based on the time (seconds) required to elicit a paw withdrawal response (latency).
The data were analyzed by a one-way ANOVA followed by Dunnett's test for comparison between vehicle control and test article/positive control groups.

SMILES: CC(=O)Nc1ccc(O)cc1 [Acetaminophen, N-(4-hydroxyphenyl)acetamide]
- solubility ([1]; pH 4, aqueous buffer, Solubility of acetaminophen, water, pH 4, co-dissolved with pregabalin): ~21 mg/mL (≈ 139 mM)
- solubility ([1]; pH 5, aqueous buffer, Solubility of acetaminophen, water, pH 5, co-dissolved with pregabalin): 18.7 mg/mL (≈ 124 mM)
- solubility ([1]; pH 6, aqueous buffer, Solubility of acetaminophen, water, pH 6, co-dissolved with pregabalin): 17.9 mg/mL (≈ 118 mM)
- solubility ([1]; pH 7, aqueous buffer, Solubility of acetaminophen, water, pH 7, co-dissolved with pregabalin): 17.9 mg/mL (≈ 118 mM)
- Difference in the solubility of acetaminophen ([1]; pH range from 4-7, acetaminophen alone): no significant difference
- Solubility of acetaminophen ([1]; water, pH 4, co-dissolved with pregabalin): 20.8 mg/mL
- AUC(0-inf) (in vivo; 17 mg/kg, AUC0-∞ of acetaminophen): 11500 ng·h/mL
- Cmax (in vivo; 17 mg/kg, Cmax of acetaminophen): 18600 ng/mL
- AUC(0-inf) (in vivo; 17 mg/kg, Equivalence (80%-125%) range of acetaminophen AUC0-∞): 9190 to 14400 ng·h/mL
- Cmax (in vivo; 17 mg/kg, Equivalence (80%-125%) range of acetaminophen Cmax): 14900 to 23300 ng/mL
- Effect of the presence or absence of pregabalin on the pharmacokinetics of acetaminophen (in vivo; rats, 15 min IV infusion): did not affect
- % Hemolysis ([2]; APAP 5 mg/mL): 6%
- % Hemolysis ([2]; APAP 7.5 mg/mL): 0%
- % Hemolysis ([2]; APAP 10 mg/mL): 2%
- % Hemolysis ([3]; APAP 5 mg/mL): 0%
- % Hemolysis ([3]; APAP 7.5 mg/mL): 0%
- % Hemolysis ([3]; APAP 10 mg/mL): 0%
- % Hemolysis ([4]; APAP 5 mg/mL): 5%
- % Hemolysis ([4]; APAP 7.5 mg/mL): 5%
- % Hemolysis ([4]; APAP 10 mg/mL): 4%
- % Hemolysis ([5]; APAP 5 mg/mL): 2%
- % Hemolysis ([5]; APAP 7.5 mg/mL): 0%
- % Hemolysis ([5]; APAP 10 mg/mL): 6%

SMILES: CC(C)C[C@H](CN)CC(=O)O [Pregabalin, (3S)-3-(Aminomethyl)-5-methylhexanoic acid]
- solubility ([1]; aqueous buffer, Solubility of pregabalin, water, pH range of 5-7, pregabalin alone): ~31 mg/mL (≈ 195 mM)
- solubility ([1]; pH 4, aqueous buffer, Solubility of pregabalin, water, pH 4, co-dissolved with acetaminophen): 54.4 mg/mL (≈ 342 mM)
- solubility ([1]; pH 4, aqueous buffer, Solubility of pregabalin, water, room temperature, pH 4, pregabalin alone): 54.4 mg/mL (≈ 342 mM)
- solubility ([1]; pH 5, aqueous buffer, Solubility of pregabalin, water, pH 5, co-dissolved with acetaminophen): 36.8 mg/mL (≈ 231 mM)
- solubility ([1]; pH 5, aqueous buffer, Solubility of pregabalin, water, room temperature, pH 5, pregabalin alone): 32.4 mg/mL (≈ 203 mM)
- solubility ([1]; pH 6, aqueous buffer, Solubility of pregabalin, water, pH 6, co-dissolved with acetaminophen): 35 mg/mL (≈ 220 mM)
- solubility ([1]; pH 6, aqueous buffer, Solubility of pregabalin, water, room temperature, pH 6, pregabalin alone): 31 mg/mL (≈ 195 mM)
- solubility ([1]; pH 7, aqueous buffer, Solubility of pregabalin, water, pH 7, co-dissolved with acetaminophen): 35 mg/mL (≈ 220 mM)
- solubility ([1]; pH 7, aqueous buffer, Solubility of pregabalin, water, room temperature, pH 7, pregabalin alone): 30.6 mg/mL (≈ 192 mM)
- Change in the solubility of pregabalin in the presence of acetaminophen ([1]; pH range of 5-7, versus pregabalin alone): increase
- AUC(0-inf) (in vivo; 1.25 mg/kg, AUC0-∞ of pregabalin, rats, 15 min IV infusion, Pregabalin 1.25 mg/kg): 6750 ng·h/mL
- Cmax (in vivo; 1.25 mg/kg, Cmax of pregabalin, rats, 15 min IV infusion, Pregabalin 1.25 mg/kg): 2060 ng/mL
- AUC(0-inf) (in vivo; 1.25 mg/kg, Equivalence (80%-125%) range of pregabalin AUC0-∞, rats, Pregabalin 1.25 mg/kg alone as reference): 5400 to 8440 ng·h/mL
- Cmax (in vivo; 1.25 mg/kg, Equivalence (80%-125%) range of pregabalin Cmax, rats, Pregabalin 1.25 mg/kg alone as reference): 1650 to 2580 ng/mL
- AUC(0-inf) (in vivo; 5 mg/kg, AUC0-∞ of pregabalin, rats, 15 min IV infusion, Pregabalin 5 mg/kg): 26100 ng·h/mL
- Cmax (in vivo; 5 mg/kg, Cmax of pregabalin, rats, 15 min IV infusion, Pregabalin 5 mg/kg): 7910 ng/mL
- AUC(0-inf) (in vivo; 5 mg/kg, Equivalence (80%-125%) range of pregabalin AUC0-∞, rats, Pregabalin 5 mg/kg alone as reference): 20900 to 32700 ng·h/mL
- Cmax (in vivo; 5 mg/kg, Equivalence (80%-125%) range of pregabalin Cmax, rats, Pregabalin 5 mg/kg alone as reference): 6330 to 9880 ng/mL
- Change in the pharmacokinetic profile of pregabalin in the presence or absence of acetaminophen (in vivo; rats, 15 min IV infusion): No change
- ALBGLOB (albumin/globulin ratio, calculated) ([6]; PGB 1.25 mg/kg): 1.4
- ALP (alkaline phosphatase) ([6]; PGB 1.25 mg/kg): 99 U/L
- ALT (alanine aminotransferase) ([6]; PGB 1.25 mg/kg): 45 U/L
- APPT (Activated partial thromboplastin time) ([6]; PGB 1.25 mg/kg): 12.9 s
- AST (aspartate aminotransferase) ([6]; PGB 1.25 mg/kg): 93 ** U/L
- Albumin ([6]; PGB 1.25 mg/kg): 4.0 g/dL
- Basophils ([6]; PGB 1.25 mg/kg): 80 µL⁻¹
- Bilirubin ([6]; PGB 1.25 mg/kg): 0.02 mg/dL
- Calcium ([6]; PGB 1.25 mg/kg): 11.4 mg/dL
- Chloride ([6]; PGB 1.25 mg/kg): 102 mEq/L
- Cholesterol ([6]; PGB 1.25 mg/kg): 94 mg/dL
- Creatinine ([6]; PGB 1.25 mg/kg): 0.47 mg/dL
- Eosinophils ([6]; PGB 1.25 mg/kg): 280 µL⁻¹
- GLOBUL (globulin, calculated) ([6]; PGB 1.25 mg/kg): 2.8 g/dL
- Glucose ([6]; PGB 1.25 mg/kg): 166 mg/dL
- Hematocrit ([6]; PGB 1.25 mg/kg): 44.2%
- Hemoglobin ([6]; PGB 1.25 mg/kg): 14.2 g/dL
- LGLUCLE (large unstained cell) ([6]; PGB 1.25 mg/kg): 100 µL⁻¹
- Lymphocytes ([6]; PGB 1.25 mg/kg): 9400 µL⁻¹
- MCH (mean cell hemoglobin) ([6]; PGB 1.25 mg/kg): 17.8 pg
- MCHC (mean cell hemoglobin concentration) ([6]; PGB 1.25 mg/kg): 32 g/dL
- MCV (mean cell volume) ([6]; PGB 1.25 mg/kg): 55.8 fL
- Monocytes ([6]; PGB 1.25 mg/kg): 500 µL⁻¹
- Neutrophils ([6]; PGB 1.25 mg/kg): 1400 µL⁻¹
- PHOS (inorganic phosphorus) ([6]; PGB 1.25 mg/kg): 10.6 mg/dL
- Platelets ([6]; PGB 1.25 mg/kg): 908000 µL⁻¹
- Potassium ([6]; PGB 1.25 mg/kg): 7.3 mEq/L
- Protein ([6]; PGB 1.25 mg/kg): 6.7 g/dL
- Prothrombin time ([6]; PGB 1.25 mg/kg): 16.8 s
- RBC ([6]; PGB 1.25 mg/kg): 7.93e+06 µL⁻¹
- Reticulocytes ([6]; PGB 1.25 mg/kg): 4.11 * %
- Sodium ([6]; PGB 1.25 mg/kg): 148 * mEq/L
- Triglycerides ([6]; PGB 1.25 mg/kg): 33 mg/dL
- UREAN (blood urea nitrogen) ([6]; PGB 1.25 mg/kg): 19 mg/dL
- WBC ([6]; PGB 1.25 mg/kg): 11740 µL⁻¹
- ALBGLOB (albumin/globulin ratio, calculated) ([6]; PGB 5 mg/kg): 1.4
- ALP (alkaline phosphatase) ([6]; PGB 5 mg/kg): 97 U/L
- ALT (alanine aminotransferase) ([6]; PGB 5 mg/kg): 51 U/L
- APPT (Activated partial thromboplastin time) ([6]; PGB 5 mg/kg): 12.4 s
- AST (aspartate aminotransferase) ([6]; PGB 5 mg/kg): 107 U/L
- Albumin ([6]; PGB 5 mg/kg): 3.9 g/dL
- Basophils ([6]; PGB 5 mg/kg): 80 µL⁻¹
- Bilirubin ([6]; PGB 5 mg/kg): 0.02 mg/dL
- Calcium ([6]; PGB 5 mg/kg): 11.5 mg/dL
- Chloride ([6]; PGB 5 mg/kg): 101 mEq/L
- Cholesterol ([6]; PGB 5 mg/kg): 93 mg/dL
- Creatinine ([6]; PGB 5 mg/kg): 0.44 mg/dL
- Eosinophils ([6]; PGB 5 mg/kg): 350 µL⁻¹
- GLOBUL (globulin, calculated) ([6]; PGB 5 mg/kg): 2.8 g/dL
- Glucose ([6]; PGB 5 mg/kg): 150 mg/dL
- Hematocrit ([6]; PGB 5 mg/kg): 45.1%
- Hemoglobin ([6]; PGB 5 mg/kg): 14.4 g/dL
- LGLUCLE (large unstained cell) ([6]; PGB 5 mg/kg): 80 µL⁻¹
- Lymphocytes ([6]; PGB 5 mg/kg): 10810 µL⁻¹
- MCH (mean cell hemoglobin) ([6]; PGB 5 mg/kg): 18.3 pg
- MCHC (mean cell hemoglobin concentration) ([6]; PGB 5 mg/kg): 32.1 g/dL
- MCV (mean cell volume) ([6]; PGB 5 mg/kg): 57.1 fL
- Monocytes ([6]; PGB 5 mg/kg): 450 µL⁻¹
- Neutrophils ([6]; PGB 5 mg/kg): 1520 µL⁻¹
- PHOS (inorganic phosphorus) ([6]; PGB 5 mg/kg): 10 ** mg/dL
- Platelets ([6]; PGB 5 mg/kg): 933000 µL⁻¹
- Potassium ([6]; PGB 5 mg/kg): 6.9 * mEq/L
- Protein ([6]; PGB 5 mg/kg): 6.7 g/dL
- Prothrombin time ([6]; PGB 5 mg/kg): 16.6 s
- RBC ([6]; PGB 5 mg/kg): 7.9e+06 µL⁻¹
- Reticulocytes ([6]; PGB 5 mg/kg): 4.7%
- Sodium ([6]; PGB 5 mg/kg): 147 mEq/L
- Triglycerides ([6]; PGB 5 mg/kg): 30 mg/dL
- UREAN (blood urea nitrogen) ([6]; PGB 5 mg/kg): 19 mg/dL
- WBC ([6]; PGB 5 mg/kg): 13280 µL⁻¹
- Necropsy Observation: Lung Discolored ([7]; PGB 1.25 mg/kg): 1
- Necropsy Observation: Lung Focus ([7]; PGB 1.25 mg/kg): 1
- Necropsy Observation: Lung Discolored ([7]; PGB 5 mg/kg): 0
- Necropsy Observation: Lung Focus ([7]; PGB 5 mg/kg): 2
- % Hemolysis ([2]; PGB 0.75 mg/mL): 2%
- % Hemolysis ([2]; PGB 1.5 mg/mL): 0%
- % Hemolysis ([2]; PGB 3 mg/mL): 2%
- % Hemolysis ([3]; PGB 0.75 mg/mL): 0%
- % Hemolysis ([3]; PGB 1.5 mg/mL): 0%
- % Hemolysis ([3]; PGB 3 mg/mL): 1%
- % Hemolysis ([4]; PGB 0.75 mg/mL): 0%
- % Hemolysis ([4]; PGB 1.5 mg/mL): 4%
- % Hemolysis ([4]; PGB 3 mg/mL): 0%
- % Hemolysis ([5]; PGB 0.75 mg/mL): 0%
- % Hemolysis ([5]; PGB 1.5 mg/mL): 7%
- % Hemolysis ([5]; PGB 3 mg/mL): 1%

SMILES: CN1CC[C@]23c4c5ccc(O)c4O[C@H]2[C@@H](O)C=C[C@H]3[C@H]1C5 [morphine]
- Onset of the analgesic effect [8]: near immediate
